Assay results: patent US9890152B2 (Genentech, Inc., priority 2012, dated 2018)

Target: T1, EGFR del746-750 T790M (Homo sapiens, UniProt P00533, DEL746-750/T790M)
T1 construct: purchased Carna Biosciences 08-528
Assay: EGFR del746-750 T790M biochemical assay (Caliper mobility shift)
Details: 5 μM ATP, 30 min, room temperature; apparent Ki (Morrison) converted by Cheng-Prusoff, Km of ATP 2.1 μM; read-out: EGFR(T790M/d746-750) Ki

T1 sequence (P00533 with tags, fused parts or gaps DEL746-750/T790M limits assumed): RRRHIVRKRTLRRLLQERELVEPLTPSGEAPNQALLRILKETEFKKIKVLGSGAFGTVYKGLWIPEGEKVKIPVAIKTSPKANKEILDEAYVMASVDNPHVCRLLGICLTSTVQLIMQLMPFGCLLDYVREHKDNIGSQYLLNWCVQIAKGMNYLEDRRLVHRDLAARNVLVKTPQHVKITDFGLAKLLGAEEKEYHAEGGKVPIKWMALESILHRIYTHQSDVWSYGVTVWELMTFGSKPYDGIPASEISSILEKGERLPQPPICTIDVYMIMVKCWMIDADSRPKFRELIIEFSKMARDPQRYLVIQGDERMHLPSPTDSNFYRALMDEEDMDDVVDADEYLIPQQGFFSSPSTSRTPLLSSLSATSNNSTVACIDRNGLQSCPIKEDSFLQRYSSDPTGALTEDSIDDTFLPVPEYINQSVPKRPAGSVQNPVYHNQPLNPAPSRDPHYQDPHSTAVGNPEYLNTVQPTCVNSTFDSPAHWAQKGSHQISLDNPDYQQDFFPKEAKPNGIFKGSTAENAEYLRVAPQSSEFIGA

Ki [nM] | Compound
0.62 | CCS(=O)(=O)n1cc(-c2nccc(Nc3cc4c(cn3)c(C(=O)NC3COC3)cn4C(C)C)n2)cn1 [Example 448, 6-(2-(1-(ethylsulfonyl)-1H-pyrazol-4-yl)pyrimidin-4-ylamino)-1-isopropyl-N-(oxetan-3-yl)-1H-pyrrolo[3,2-c]pyridine-3-carboxamide]
1.35 | CC(C)n1cc(C(=O)NC2CCSCC2)c2cnc(Nc3ccnc(-c4cnn(S(=O)(=O)C5CC5)c4)n3)cc21 [Example 458, 6-(2-(1-(cyclopropylsulfonyl)-1H-pyrazol-4-yl)pyrimidin-4-ylamino)-1-isopropyl-N-(tetrahydro-2H-thiopyran-4-yl)-1H-pyrrolo[3,2-c]pyridine-3-carboxamide]
5.77 | Cc1nc2cnc(Nc3ccnc(-c4cnn(S(=O)(=O)C5CNC5)c4)n3)cc2n1C(C)C [Example 467, N-(2-(1-(azetidin-3-ylsulfonyl)-1H-pyrazol-4-yl)pyrimidin-4-yl)-1-isopropyl-2-methyl-1H-imidazo[4,5-c]pyridin-6-amine]
32.4 | CC(C)CC(C)n1c(CO)nc2cnc(Nc3ccnc(-c4cnn(S(=O)(=O)C5CC5)c4)n3)cc21 (stereo not shown) [Example 478, (6-(2-(1-(cyclopropylsulfonyl)-1H-pyrazol-4-yl)pyrimidin-4-ylamino)-1-(4-methylpentan-2-yl)-1H-imidazo[4,5-c]pyridin-2-yl)methanol]
2.17 | CC(CC1CC1)n1c(CO)nc2cnc(Nc3ccnc(-c4cnn(S(=O)(=O)C5CC5)c4)n3)cc21 (stereo not shown) [Example 488, (1-(1-cyclopropylpropan-2-yl)-6-(2-(1-(cyclopropylsulfonyl)-1H-pyrazol-4-yl)pyrimidin-4-ylamino)-1H-imidazo[4,5-c]pyridin-2-yl)methanol]
746 | COC[C@H](C)n1c(C)nc2cnc(Nc3ccnc(N4CCC(OC)CC4)n3)cc21 [Example 490, [1-((S)-2-Methoxy-1-methylethyl)-2-methyl-1H-imidazo [4,5-c]pyridin-6-yl]-[2-(4-methoxypiperidin-1-yl)pyrimidin-4-yl]amine]
30.4 | COC1CCN(c2nccc(Nc3cc4c(cn3)nc(C)n4-c3ccccc3)n2)CC1 [Example 494, N-(2-(4-Methoxypiperidin-yl)pyrimidin-4-yl)-2-methyl-1-phenyl-1H-imidazo[4,5-c]pyridin-6-amine]
71.7 | Cc1nc2cnc(Nc3ccnc(N4CCC5(CCO5)CC4)n3)cc2n1C(C)C [Example 495, N-(2-(1-Oxa-7-azaspiro[3.5]nonan-7-yl)pyrimidin-4-yl)-1-isopropyl-2-methyl-1H-imidazo[4,5-c]pyridin-6-amine]
51.7 | Cc1nc2cnc(Nc3ccnc(NCC(C)(C)S(C)(=O)=O)n3)cc2n1C(C)C [Example 499, N^4-(1-Isopropyl-2-methyl-1H-imidazo[4,5-c]pyridin-6-yl)-N2-(2-methyl-2-(methylsulfonyl)propyl) pyrimidine-2,4-diamine]
128 | Cc1nc2cnc(Nc3ccnc(N4CCC(O)CC4)n3)cc2n1C(C)C [Example 503, 1-(4-((1-Isopropyl-2-methyl-1H-imidazo[4,5-c]pyridin-6-yl)amino)pyrimidin-2-yl)piperidin-4-ol]
117 | Cc1nc2cnc(Nc3ccnc(N4CCC5(CC4)OCCO5)n3)cc2n1C(C)C [Example 506, N-(2-(1,4-Dioxa-8-azaspiro[4.5]decan-8-yl)pyrimidin-4-yl)-1-isopropyl-2-methyl-1H-imidazo[4,5-c]pyridin-6-amine]
133 | CC(C)n1c(CO)nc2cnc(Nc3ccnc(N4CCC(C(F)(F)F)CC4)n3)cc21 [Example 512, (1-Isopropyl-6-((2-(4-(trifluoromethyl)piperidin-1-yl)pyrimidin-4-yl)amino)-imidazo[4,5-c]pyridin-2-yl)methanol]
519 | COC1CCN(c2nccc(Nc3cc4c(cn3)nc3n4C(C)(C)CO3)n2)CC1 [Example 532, N-(2-(4-methoxypiperidin-1-yl)pyrimidin-4-yl)-3,3-dimethyl-2,3-dihydrooxazolo[3′,2′:1,2]imidazo [4,5-c]pyridin-6-amine]
